Data: ChEMBL document CHEMBL4028802, “DILIrank: the largest reference drug list ranked by the risk for developing drug-induced liver injury in humans” (Drug Discov Today, 2016)

Key:
Homo sapiens [1] = organism: Homo sapiens; assay: Liver toxicity in human assessed as induction of drug-induced liver injury by measuring severity class index
Homo sapiens [2] = organism: Homo sapiens; assay: Liver toxicity in human assessed as induction of drug-induced liver injury by measuring verified drug-induced liver injury concern status
For DILI severity class in this document: key of the grades not given here.

SMILES | DILI_severity_class (Homo sapiens [1]) | DILI_Concern (Homo sapiens [2])
CC[N+](CC)(CCNC(=O)C(=O)NCC[N+](CC)(CC)Cc1ccccc1Cl)Cc1ccccc1Cl [AMBENONIUM] | 0 | No-Dili-Concern
NC(=O)N1c2ccccc2C=Cc2ccccc21 [CARBAMAZEPINE] | 7 | Most-Dili-Concern
CCCCCCCCCCC[C@@H](C[C@@H]1OC(=O)[C@H]1CCCCCC)OC(=O)[C@H](CC(C)C)NC=O [ORLISTAT] | 8 | Most-Dili-Concern
CC(=O)Oc1ccc(C2(c3ccc(OC(C)=O)cc3)C(=O)N(C(C)=O)c3ccccc32)cc1 [TRIACETYLDIPHENOLISATIN] | 8 | Most-Dili-Concern
O=C(CCCCCCC(=O)Nc1ccccc1)NO [VORINOSTAT] | 0 | No-Dili-Concern
OCCOCCN1CCN(C(c2ccccc2)c2ccc(Cl)cc2)CC1 (configuration not stated) [HYDROXYZINE] | 0 | No-Dili-Concern
NC(=O)CC[C@H](N)C(=O)O [GLUTAMINE] | 3 | Ambiguous-Dili-Concern
CC(=O)Oc1cc(C(C)C)c(OCCN(C)C)cc1C [MOXISYLYTE] | 8 | Most-Dili-Concern
NC(=O)[C@@H]1CCCN1C(=O)[C@H](Cc1cnc[nH]1)NC(=O)[C@@H]1CCC(=O)N1 [PROTIRELIN] | 0 | No-Dili-Concern
O=[As][As+](=O)[O-] (configuration not stated) [ARSENIC TRIOXIDE] | 3 | Ambiguous-Dili-Concern
CC(C(=O)O)c1ccc2oc(-c3ccc(Cl)cc3)nc2c1 (configuration not stated) [BENOXAPROFEN] | 8 | Most-Dili-Concern
